Laboratory results from patent US4087461A, “Anti-androgenic steroids” (The Johns Hopkins University, priority 1977, dated 1978).
Entries after “also recorded” stand apart in the source; their conditions may differ.

How the values were obtained:
[1] = molecular target: T1, cytosol androgen receptor (prostate androgen binding protein) (Rattus norvegicus, UniProt P15207); assay: inhibition of nuclear uptake of ^3H-dihydrotestosterone in ventral prostate minces (binding to the prostatic androgen receptor)
T1 construct: freshly minced ventral prostate tissue obtained from rats castrated 24 hours before sacrifice; from tissue; host or cells: ventral prostate minces of castrated rats
T1 sequence (P15207 1-902): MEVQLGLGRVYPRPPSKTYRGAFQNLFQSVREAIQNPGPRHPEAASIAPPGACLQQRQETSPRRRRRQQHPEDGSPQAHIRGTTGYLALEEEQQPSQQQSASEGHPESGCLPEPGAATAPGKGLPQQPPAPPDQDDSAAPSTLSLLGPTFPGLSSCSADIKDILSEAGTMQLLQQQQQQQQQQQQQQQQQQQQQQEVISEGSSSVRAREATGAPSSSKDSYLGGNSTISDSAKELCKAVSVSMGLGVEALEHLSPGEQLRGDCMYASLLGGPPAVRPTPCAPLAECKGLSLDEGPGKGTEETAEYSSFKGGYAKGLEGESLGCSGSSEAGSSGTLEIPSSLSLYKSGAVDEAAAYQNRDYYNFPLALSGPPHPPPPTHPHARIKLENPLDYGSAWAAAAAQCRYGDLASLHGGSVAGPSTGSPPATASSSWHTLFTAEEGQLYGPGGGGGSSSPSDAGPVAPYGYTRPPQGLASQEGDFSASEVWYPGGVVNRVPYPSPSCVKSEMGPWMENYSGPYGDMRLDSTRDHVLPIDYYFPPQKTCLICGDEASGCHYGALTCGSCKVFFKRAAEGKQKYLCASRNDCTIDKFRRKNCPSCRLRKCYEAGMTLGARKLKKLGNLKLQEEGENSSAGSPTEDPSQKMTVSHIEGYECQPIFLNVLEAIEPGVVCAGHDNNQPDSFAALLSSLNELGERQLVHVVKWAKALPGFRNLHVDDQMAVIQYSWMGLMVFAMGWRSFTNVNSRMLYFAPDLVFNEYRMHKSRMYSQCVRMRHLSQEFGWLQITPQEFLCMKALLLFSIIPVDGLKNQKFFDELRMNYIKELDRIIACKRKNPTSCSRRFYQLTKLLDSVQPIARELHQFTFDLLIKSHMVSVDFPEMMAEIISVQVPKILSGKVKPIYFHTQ
Experimental: The binding to the cytosol androgen receptor was determined by the procedure of Fang (5) with modification. […] The amount of radioactivity in the nuclei is expressed as observed counts per minute per 100 μg DNA.

[2] = molecular target: T2, Δ^5 -3-ketosteroid isomerase (EC 5.3.3.1) (Comamonas testosteroni, UniProt P00947); assay: irreversible inactivation of crystalline purified bacterial Δ^5-3-ketosteroid isomerase by acetylenic steroids (Kitz and Wilson kinetic analysis); type: biochemical, Pseudomonas testosteroni; settings: 24 hr at 4° vs. 1 mM potassium phosphate buffer, pH 7.0
T2 sequence (P00947 whole entry, stated change not applied): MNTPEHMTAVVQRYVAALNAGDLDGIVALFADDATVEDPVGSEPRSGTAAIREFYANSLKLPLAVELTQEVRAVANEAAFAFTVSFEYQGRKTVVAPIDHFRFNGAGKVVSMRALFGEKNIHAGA

[3] = molecular target: T2, Δ^5 -3-ketosteroid isomerase (EC 5.3.3.1); assay: as above; type: biochemical, Pseudomonas testosteroni
Experimental: The inactivation is progressive with time, and half-lives in the range of 150-1320 sec are observed at concentrations of 20-200 μM of the two inhibitors. The enzymatic activities of control vessels which received only equivalent volumes of 1,4-dioxane remained constant at initial activities.
The initial rates of inactivation of the isomerase by (1) and (2) can be analyzed by the method of Kitz and Wilson^8 since very satisfactory pseudo-first-order behavior was observed. It is assumed that [I] (inhibitor) >> [E] (enzyme), that [E.I] (the reversible enzyme-inhibitorcomplex) is at all times in equilibrium with enzyme and inhibitor, and that ^k cat >> ^k inh. The scheme for the formation of EI' (the irreversible enzyme-inhibitor derivative) may then be represented as follows.
If the enzyme-inhibitor solution is diluted extensively prior to assay, the active enzyme (ε) = [E] + [E.I]. Then -d(ε)/dt = k3 [E.I.], and K1 = ([E][I])/[EI]. Thus [formula] where Et = total amount of enzyme in system.
If one defines [formula] Consequently double reciprocal plots of kapp with respect to [I] should be linear, with slopes and intercepts permitting the determination of K1 and k3 where the latter is the overall rate constant for the irreversible inhibition process.
From plots of 1n ε (residual enzymatic activity) vs. time, kapp has been determined at five inhibitor concentrations for both compounds 1 and 2, i.e. estryne and pregnyne. Strict linearity of the semilogarithmic plots has been observed in all cases, over greater than two half-lives. A plot of 1/kapp vs. 1/[I] was linear and gave k3 and K1 (FIG. 1). For compound 1, K1 = 56 μM and k3 = 1.98 × 10^-3 sec^-1, and for compound 2, K1 = 32 μM and k3 = 4.10 × 10^-3 sec^-1.
Studies were performed using crystalline purified bacterial Δ^5 -3-ketosteroid isomerase (from P. testosteroni), under pseudo first order conditions using the kinetic analysis of R. Kitz and I. B. Wilson [J. Biol. Chem., 237, 3245 (1964)].

[4] = tested on: endogenous androgen biosynthesis; assay: study in intact male rats: weights of sex accessory tissue and other organs; type: in vivo, male Sprague-Dawley rats; settings: 7 days; for Adrenal weight (± Sem): control 28 ± 2; for Dorsal Lateral Prostate weight (± Sem): control 252 ± 14; for Seminal Vesicles weight (± Sem): control 470 ± 26; for Ventral Prostate weight (± Sem): control 482 ± 24; for Kidney weight (± Sem): control 1410 ± 38; for Testis weight (± Sem): control 1580 ± 23
Experimental: Studies with intact male Sprague-Dawley rats (300g body weight) are illustrated for compounds (1) and (2).
Similarly, compound (2), […] rats at a dosage of 20mg per kilo for 7 days produced 20% reduction in weight of the ventral prostate and 28% reduction of the dorsal lateral prostate.
The following data illustrates the inhibiting effect of estryne and pregnyne on Δ^5 -3-ketosteroid isomerase (EC 5.3.3.1) as evidenced by a depression of the wet weight of the sex accessory tissue in the mature male rat treated with the estryne and pregnyne.
A. Male rats were used to assess the effect of estryne on endogenous androgen biosynthesis at varying doses (1-20 mg/kg body weight). […] On the eighth day the animals were sacrificed and the ventral prostate, dorsal lateral prostate, seminal vesicles, testes, kidneys, and adrenals were removed and weighed. Samples of each tissue were preserved in 10% buffered formalin for histological examination.
B. Male rats were treated with 19-norpregnyne by a regimen exactly as described for the estryne.

[5] = 20mg per kilo per day, i.p. in propylene glycol

Question: For `CC(=O)[C@H]1CC[C@H]2[C@@H]3CC#CCC(=O)CCC(=O)[C@H]3CC[C@]12C` [Compound 2, 5,10-seco-19-norpregn-5-yne-3,10,20-trione], which remaining activity at 2 µM ([1]; rat, 1 h, pH 7.4, steroid 2 × 10^-6 M with ^3H-DHT 2 × 10^-9 M, read-out: nuclear uptake of ^3H-DHT, % Control) is on record?
Answer: 137%

Question: And the “CPM/100 DNA (nuclear uptake of ^3H-DHT)” value ([1]; steroid 2 × 10^-6 M with ^3H-DHT 2 × 10^-9 M, control 8,471)?
Answer: 11,636 CPM/100 DNA

Question: And the “inhibition of androgen uptake by the nuclei” value ([1]; ventral prostate minces, in words)?
Answer: no inhibition of androgen uptake by the nuclei

Question: What about the “restoration of enzymatic activity by prolonged dialysis” value [2] of the same compound?
Answer: inability to restore enzymatic activity

Question: What about the “irreversible inhibition / inactivation of the enzyme” value ([3]; in words) of the same compound?
Answer: rapid irreversible inhibition; also recorded: rapid irreversible and complete inactivation of the enzyme; also recorded: Powerful irreversible inhibition

Question: And the “half-life of enzyme inactivation” value ([3]; pH 7.0, 20-200 μM of the two inhibitors, in 1,4-dioxane)?
Answer: 2.5 to 22 min

Question: And the kinact ([3]; pH 7, pseudo first order conditions, five inhibitor concentrations (10-fold range), read-out: k3, overall rate constant for the irreversible inhibition process)?
Answer: 0.0041 s⁻¹

Question: What about the Ki ([3]; pseudo first order conditions, five inhibitor concentrations (10-fold range), read-out: K1 (KI), inhibitor dissociation constant) of the same compound?
Answer: 32 µM

Question: And the “reduction in weight of the dorsal lateral prostate” value [4, 5]?
Answer: 28%

Question: What about the “reduction in weight of the ventral prostate” value [4, 5] of the same compound?
Answer: 20%

Question: What about the “dose dependence of the effect on prostatic weight” value ([4]; 1-20 mg/kg, in words) of the same compound?
Answer: dose dependent

Question: And the “Adrenal weight (± Sem)” value ([4]; pregnyne 1 mg/kg daily i.p.)?
Answer: 22 ± 2 mg

Question: And the “Dorsal Lateral Prostate weight (± Sem)” value ([4]; pregnyne 1 mg/kg daily i.p.)?
Answer: 205 ± 14 mg

Question: What about the “Seminal Vesicles weight (± Sem)” value ([4]; pregnyne 1 mg/kg daily i.p.) of the same compound?
Answer: 423 ± 21 mg

Question: What about the “Ventral Prostate weight (± Sem)” value ([4]; pregnyne 1 mg/kg daily i.p.) of the same compound?
Answer: 405 ± 18 mg

Question: And the “Kidney weight (± Sem)” value ([4]; pregnyne 1 mg/kg daily i.p.)?
Answer: 1360 ± 48 mg

Question: What about the “Testis weight (± Sem)” value ([4]; pregnyne 1 mg/kg daily i.p.) of the same compound?
Answer: 1530 ± 68 mg

Question: And the “Adrenal weight (± Sem)” value ([4]; pregnyne 5 mg/kg daily i.p.)?
Answer: 25 ± 2 mg

Question: And the “Dorsal Lateral Prostate weight (± Sem)” value ([4]; pregnyne 5 mg/kg daily i.p.)?
Answer: 208 ± 11 mg

Question: What about the “Seminal Vesicles weight (± Sem)” value ([4]; pregnyne 5 mg/kg daily i.p.) of the same compound?
Answer: 384 ± 17 mg

Question: What about the “Ventral Prostate weight (± Sem)” value ([4]; pregnyne 5 mg/kg daily i.p.) of the same compound?
Answer: 402 ± 27 mg

Question: And the “Kidney weight (± Sem)” value ([4]; pregnyne 5 mg/kg daily i.p.)?
Answer: 1370 ± 42 mg

Question: What about the “Testis weight (± Sem)” value ([4]; pregnyne 5 mg/kg daily i.p.) of the same compound?
Answer: 1510 ± 44 mg

Question: What about the “Adrenal weight (± Sem)” value ([4]; pregnyne 10 mg/kg daily i.p.) of the same compound?
Answer: 26 ± 1 mg

Question: What about the “Dorsal Lateral Prostate weight (± Sem)” value ([4]; pregnyne 10 mg/kg daily i.p.) of the same compound?
Answer: 182 ± 19 mg

Question: And the “Seminal Vesicles weight (± Sem)” value ([4]; pregnyne 10 mg/kg daily i.p.)?
Answer: 390 ± 14 mg

Question: And the “Ventral Prostate weight (± Sem)” value ([4]; pregnyne 10 mg/kg daily i.p.)?
Answer: 386 ± 20 mg

Question: What about the “Kidney weight (± Sem)” value ([4]; pregnyne 10 mg/kg daily i.p.) of the same compound?
Answer: 1310 ± 60 mg

Question: What about the “Testis weight (± Sem)” value ([4]; pregnyne 10 mg/kg daily i.p.) of the same compound?
Answer: 1530 ± 53 mg

Question: And the “Adrenal weight (± Sem)” value ([4]; pregnyne 20 mg/kg daily i.p.)?
Answer: 31 ± 2 mg

Question: What about the “Dorsal Lateral Prostate weight (± Sem)” value ([4]; pregnyne 20 mg/kg daily i.p.) of the same compound?
Answer: 180 ± 14 mg

Question: And the “Seminal Vesicles weight (± Sem)” value ([4]; pregnyne 20 mg/kg daily i.p.)?
Answer: 380 ± 9 mg

Question: What about the “Ventral Prostate weight (± Sem)” value ([4]; pregnyne 20 mg/kg daily i.p.) of the same compound?
Answer: 360 ± 21 mg

Question: And the “Kidney weight (± Sem)” value ([4]; pregnyne 20 mg/kg daily i.p.)?
Answer: 1360 ± 43 mg

Question: And the “Testis weight (± Sem)” value ([4]; pregnyne 20 mg/kg daily i.p.)?
Answer: 1480 ± 63 mg
